Reference: US20080214555A1 (priority 2007, published 2008)

How the values were obtained:
[1] = tested on: patients with non-ST elevation acute coronary syndrome; assay: MERLIN-TIMI 36: HbA1c and hyperglycemia; format: in vivo, human
Description: HbA1c data are reported as least-square means. Patients categorized as “diabetic” had been diagnosed as diabetic before or at the time of randomization. Patients categorized as “no diabetes” had not been diagnosed as diabetic before or at the time of randomization. Some patients characterized as “no diabetes” may have been diagnosed as “diabetic” during the trial; however, these patients are still listed in the “no diabetes” category in FIG. 4B.

[2] = tested on: patients with non-ST elevation acute coronary syndrome; assay: MERLIN-TIMI 36: ischemia on Holter / continuous ECG (CECG); format: in vivo, human
Method: Median clinical follow-up was 12 months. At randomization, 3-lead CECG monitoring was initiated for median duration of 6.9 days. Recurrent ischemia on CECG was defined as ST dep >1 mm from baseline lasting >1 min. The TRS is calculated as the sum of seven presenting characteristics: 1) age >65 yrs, 2) >3 cardiac risk factors, 3) documented coronary artery disease, 4) recent severe angina, 5) ST deviation >0.5 mm, 6) elevated cardiac markers, and 7) prior aspirin use and is categorized as low (0-2), moderate (3-4), or high (>4) risk.
The data for total duration (minutes) of ischemia on Holter between randomization and 72 hours from MERLIN-TIMI 36 is shown in Table 19 below.
At randomization, 6355 patients (99%) had 3-lead CECG monitoring initiated (median duration 6.9 days). The primary CECG endpoint was the rate of ST dep ≧1 mm from baseline lasting ≧1 minute with heart rate at onset <100 bpm. Exploratory analyses using ST dep ≧0.5 mm were also performed.

[3] = Baseline (in-hospital visit prior to randomization), all patients dosed, n = 3268
[4] = Diabetes at enrollment, n = 1098, Baseline
[5] = Diabetes at enrollment, n = 1098, Final Visit
[6] = Diabetes at enrollment, n = 1098, Month 4
[7] = Diabetes at enrollment, n = 1098, Month 8
[8] = Diabetes at enrollment, n = 1098, Month 16
[9] = Final Visit, all patients dosed, n = 3268
[10] = Month 4, all patients dosed, n = 3268
[11] = Month 8, all patients dosed, n = 3268
[12] = Month 16, all patients dosed, n = 3268
[13] = No Diabetes at enrollment, n = 2170, Baseline
[14] = No Diabetes at enrollment, n = 2170, Final Visit
[15] = No Diabetes at enrollment, n = 2170, Month 4
[16] = No Diabetes at enrollment, n = 2170, Month 8
[17] = No Diabetes at enrollment, n = 2170, Month 16
[18] = at 4 months, 4306 patients with serial measurements
[19] = patients with DM treated with ranolazine

For COc1ccccc1OCC(O)CN1CCN(CC(=O)Nc2c(C)cccc2C)CC1 (racemic) [Ranolazine, (±)-N-(2,6-dimethylphenyl)-4-[2-hydroxy-3-(2-methoxyphenoxy)-propyl]-1-piperazineacetamide], the “Patients with HbA1C ≧7%, number” value [1, 3] was 655, the “Patients with HbA1C ≧7%, proportion” value [1, 3] was “(24%)” and the “Patients with HbA1C ≧7%, number” value [1, 4] was 542. The “Patients with HbA1C ≧7%, proportion” value [1, 4] was “(57%)”, the “Patients with HbA1C ≧7%, number” value [1, 5] was 324 and the “Patients with HbA1C ≧7%, proportion” value [1, 5] was “(42%)”. For the same compound, the “Patients with HbA1C ≧7%, number” value [1, 6] was 326, the “Patients with HbA1C ≧7%, proportion” value [1, 6] was “(41%)” and the “Patients with HbA1C ≧7%, number” value [1, 7] was 263. For the same compound, the “Patients with HbA1C ≧7%, proportion” value [1, 7] was “(44%)”, the “Patients with HbA1C ≧7%, number” value [1, 8] was 63 and the “Patients with HbA1C ≧7%, proportion” value [1, 8] was “(48%)”. The “Patients with HbA1C ≧7%, number” value [1, 9] was 416, the “Patients with HbA1C ≧7%, proportion” value [1, 9] was “(17%)” and the “Patients with HbA1C ≧7%, number” value [1, 10] was 404. The “Patients with HbA1C ≧7%, proportion” value [1, 10] was “(17%)”, the “Patients with HbA1C ≧7%, number” value [1, 11] was 335 and the “Patients with HbA1C ≧7%, proportion” value [1, 11] was “(18%)”. The “Patients with HbA1C ≧7%, number” value [1, 12] was 84, the “Patients with HbA1C ≧7%, proportion” value [1, 12] was “(20%)” and the “Patients with HbA1C ≧7%, number” value [1, 13] was 113. For the same compound, the “Patients with HbA1C ≧7%, proportion” value [1, 13] was “(6%)”, the “Patients with HbA1C ≧7%, number” value [1, 14] was 92 and the “Patients with HbA1C ≧7%, proportion” value [1, 14] was “(6%)”. For the same compound, the “Patients with HbA1C ≧7%, number” value [1, 15] was 78, the “Patients with HbA1C ≧7%, proportion” value [1, 15] was “(5%)” and the “Patients with HbA1C ≧7%, number” value [1, 16] was 72. The “Patients with HbA1C ≧7%, proportion” value [1, 16] was “(6%)”, the “Patients with HbA1C ≧7%, number” value [1, 17] was 21 and the “Patients with HbA1C ≧7%, proportion” value [1, 17] was “(7%)”. The “HbA1c (least-square mean)” value [1, 18] was 5.9%, the “HbA1c change from baseline” value [1, 18] was −0.30% and the “Worsening of hyperglycemia (>1% increase in HbA1c)” value ([1]; diabetic patients, by 1 year of follow-up) was 14.2%. The “HR, worsening of hyperglycemia” value ([1]; diabetic patients, ranolazine vs placebo, 95% CI 0.51, 0.77) was 0.63, the Reported hypoglycemia ([1]; patients with DM) was 3% and the HbA1c after decline [1, 19] was 6.8%. The “HbA1c Δ” value [1, 19] was −0.64%, the HbA1c before decline ([1]; patients with DM treated with ranolazine, starting value) was 7.2% and the “Patients achieving an HbA1c <7%” value ([1]; patients with DM, at 4 months) was 59%. The “Incidence of new fasting glucose >110 mg/dL or HbA1c ≧6%” value ([1]; patients without DM at randomization or baseline (fasting glucose <100 mg/dL and HbA1c <6%)) was 31.8%, the “HR, new fasting glucose >110 mg/dL or HbA1c ≧6%” value ([1]; patients without DM, ranolazine vs placebo, 95% CI 0.53, 0.88) was 0.68 and the “Rate of primary CECG endpoint events” value ([2]; >72 hours after randomization) was 11.6%. For the same compound, the “RR, primary CECG endpoint events” value ([2]; >72 hours after randomization, ranolazine vs placebo) was 0.86, the “Rate of primary CECG endpoint (ST dep ≧1 mm lasting ≧1 minute, heart rate at onset <100 bpm)” value ([2]; entire 7 day recording) was 19.2% and the “Rate of CECG ischemic events” value ([2]; lower ischemic threshold of 0.5 mm) was 22.9. For the same compound, the “RR, CECG ischemic events” value ([2]; lower ischemic threshold of 0.5 mm, ranolazine vs placebo) was 0.91.
